# Measurements published in patent publication US20070243244A1 (priority 2005, published 2007).
# Like-named read-outs stand apart in the source and are kept apart here.
# How the values were obtained:
# [1] = pharmacokinetics after single oral (gavage) and intravenous dose in 0.9% saline (Example 2); set-up: species or system cynomolgus monkeys; conditions: male, cynomolgus monkey, in vivo; for Vd: Vdss
# Method: Four male cynomolgus monkeys were used in the study. […] The dosing volume was 10 mL/kg.
# By using 0.2 mL of monkey plasma sample, the assay limit of quantitation (LOQ) was 100 ng/mL and the curve range was between 100 and 6400 ng/mL.
# AUC0-4 was calculated by AUC0-t+Ct/λ, where AUC0-t was the AUC from time 0 to t, the last quantifiable time point and Ct was the last quantifiable concentration. […] Systemic clearance (CLT) after the iv dose was calculated using the formula of Dose/AUC0-4.
# [2] = oral bioavailability of encapsulated microparticulate (100 mg) enteric coated formulation (Example 3); set-up: species or system cynomolgus monkeys; conditions: cynomolgus monkey, in vivo
# Method: Each 100 mg capsule contained 478.5 mg enteric coated granules. […] The monkeys were housed in Bioresources vivarium with free access to water and food. The four monkeys received the oral formulation described above (1×100 mg multi-particulate capsule). The formulation was administered with 10 mL water. All monkeys were fasted overnight prior to dosing (with free access to water) and were fed 4 hours after dose administration. […] Approximately 3 mL of blood were drawn into Vacutainer® tubes containing sodium heparin as the anticoagulant. Plasma was separated in a refrigerated centrifuge and stored at -70° C. Plasma samples were delivered to the assay site packed on dry ice.
# [3] = solubility in water; format: physicochemical; conditions: over the entire pH range of 1 to 14
# [4] = cell monolayer permeability studies; format: in vitro ADME; conditions: 1 mM in ethanol and buffer, pH 6 to 6.4
# [5] = systemic clearance in dogs; conditions: dog, in vivo, after a single 5 mg/kg dose, read-out: systemic clearance (ClT) in dogs (converted)
# [6] = iv, 5 mg/kg, Plasma Concentrations
# [7] = po, 15 mg/kg, Plasma Concentrations
# [8] = po, 15 mg/kg, Plasma Concentrations, Mean
# [9] = cynomolgus, iv, 5 mg/kg, Plasma Concentrations
# [10] = cynomolgus, iv, 5 mg/kg, Plasma Concentrations, Mean
smiles,measurement,setting,value
CN(C)c1cc(NC(=O)CNC(C)(C)C)c(O)c2c1C[C@H]1C[C@H]3[C@H](N(C)C)C(O)=C(C(N)=O)C(=O)[C@@]3(O)C(O)=C1C2=O [Tigecycline],AUC,[1]; 15 mg/kg,18300 ng·h/mL
same,Cmax,"[1]; 15 mg/kg, Cmax",15100 ng/mL
same,half-life,"[1]; 15 mg/kg, t1/2",14.1 h
same,AUC(0-t),"[1]; iv, 5 mg/kg",18200 ng·h/mL
same,"ClT, Mean","[1]; iv, 5 mg/kg",4.67 mL/min/kg
same,"MRTiv, Mean","[1]; iv, 5 mg/kg",12.8 h
same,Plasma Concentrations,"[1]; iv, 5 mg/kg, 0 hr",<100 ng/mL
same,concentration at 0 hr,[1]; [6],< 100 ng/mL
same,concentration at 0.5 hr,[1]; [6],3340 ng/mL
same,concentration at 1 hr,[1]; [6],1660 ng/mL
same,concentration at 12 hr,[1]; [6],265 ng/mL
same,concentration at 24 hr,[1]; [6],155 ng/mL
same,concentration at 32 hr,[1]; [6],< 100 ng/mL
same,concentration at 48 hr,[1]; [6],< 100 ng/mL
same,Vd,"[1]; iv, 5 mg/kg, Mean",3.47 L/kg
same,half-life,"[1]; iv, 5 mg/kg, t1/2",11.4 to 19.1 h
same,half-life,"[1]; iv, 5 mg/kg, t1/2, Mean",14.1 h
same,AUC,"[1]; po, 15 mg/kg",163 ng·h/mL
same,detected in samples up to (time post-dose),"[1]; po, 15 mg/kg",up to 2 hours
same,Plasma Concentrations,"[1]; po, 15 mg/kg, 0 h",<100 ng/mL
same,Plasma Concentrations,"[1]; po, 15 mg/kg, 4 hr",<100 ng/mL
same,Plasma Concentrations,"[1]; po, 15 mg/kg, 6 hr",<100 ng/mL
same,Plasma Concentrations,"[1]; po, 15 mg/kg, 8 hr",<100 ng/mL
same,Plasma Concentrations,"[1]; po, 15 mg/kg, 12 hr",<100 ng/mL
same,Plasma Concentrations,"[1]; po, 15 mg/kg, 24 h",<100 ng/mL
same,Plasma Concentrations,"[1]; po, 15 mg/kg, 32 h",<100 ng/mL
same,Plasma Concentrations,"[1]; po, 15 mg/kg, 48 h",<100 ng/mL
same,AUC(0-t),"[1]; po, 15 mg/kg, AUC0-t, Mean",163 ng·h/mL
same,Cmax,"[1]; po, 15 mg/kg, Cmax",163 ng/mL
same,concentration at 0 h,[1]; [7],< 100 ng/mL
same,concentration at 0.5 h,[1]; [7],< 100 ng/mL
same,concentration at 1 hr,[1]; [7],114 ng/mL
same,concentration at 2 hr,[1]; [7],131 ng/mL
same,concentration at 4 hr,[1]; [7],< 100 ng/mL
same,concentration at 6 hr,[1]; [7],< 100 ng/mL
same,concentration at 8 hr,[1]; [7],< 100 ng/mL
same,concentration at 12 hr,[1]; [7],< 100 ng/mL
same,concentration at 24 h,[1]; [7],< 100 ng/mL
same,concentration at 32 h,[1]; [7],< 100 ng/mL
same,concentration at 48 h,[1]; [7],< 100 ng/mL
same,concentration at 0 h,[1]; [8],0 ng/mL
same,concentration at 0.5 h,[1]; [8],55.5 ng/mL
same,concentration at 1 h,[1]; [8],131 ng/mL
same,concentration at 2 h,[1]; [8],118 ng/mL
same,concentration at 4 h,[1]; [8],0 ng/mL
same,concentration at 6 h,[1]; [8],0 ng/mL
same,concentration at 8 h,[1]; [8],0 ng/mL
same,concentration at 12 h,[1]; [8],0 ng/mL
same,concentration at 24 h,[1]; [8],0 ng/mL
same,concentration at 32 h,[1]; [8],0 ng/mL
same,concentration at 48 h,[1]; [8],0 ng/mL
same,Tmax,"[1]; po, 15 mg/kg, tmax",1.8 h
same,Tmax,"[1]; po, 15 mg/kg, tmax, Mean",1.8 h
same,concentration at 2 hr,"[1]; monkeys, single oral (gavage) dose of 15 mg/kg, 2 hr, individual animals, read-out: Plasma Concentrations",191 ng/mL
same,Cmax,"[1]; cynomolgus, iv, 5 mg/kg, Cmax, Mean",15100 ng/mL
same,AUC(0-t),"[1]; cynomolgus, iv, 5 mg/kg, Mean",18300 ± 3030 ng·h/mL
same,concentration at 2 hr,[1]; [9],1010 ng/mL
same,concentration at 4 hr,[1]; [9],588 ng/mL
same,concentration at 6 hr,[1]; [9],431 ng/mL
same,concentration at 8 hr,[1]; [9],372 ng/mL
same,concentration at 0 hr,[1]; [10],0 ng/mL
same,concentration at 0.083 hr,[1]; [10],15100 ng/mL
same,concentration at 0.5 hr,[1]; [10],2250 ng/mL
same,concentration at 1 hr,[1]; [10],1400 ng/mL
same,concentration at 2 hr,[1]; [10],1090 ng/mL
same,concentration at 4 hr,[1]; [10],697 ng/mL
same,concentration at 6 hr,[1]; [10],499 ng/mL
same,concentration at 8 hr,[1]; [10],392 ng/mL
same,concentration at 12 hr,[1]; [10],264 ng/mL
same,concentration at 24 hr,[1]; [10],162 ng/mL
same,concentration at 32 hr,[1]; [10],31.8 ng/mL
same,concentration at 48 hr,[1]; [10],27 ng/mL
same,Vd,"[1]; cynomolgus, iv, 5 mg/kg, Mean",3.47 ± 1.09 L/kg
same,half-life,"[1]; cynomolgus, iv, 5 mg/kg, t1/2",12.8 h
same,half-life,"[1]; cynomolgus, iv, 5 mg/kg, t1/2, Mean",14.1 ± 3.4 h
same,Tmax,"[1]; cynomolgus, po, 15 mg/kg",1.0 h
same,Cmax,"[1]; cynomolgus, po, 15 mg/kg, Cmax",178 ng/mL
same,Cmax,"[1]; cynomolgus, po, 15 mg/kg, Cmax, Mean",163 ± 27.1 ng/mL
same,Tmax,"[1]; cynomolgus, po, 15 mg/kg, tmax",1 to 2 h
same,Cmax,"[1]; cynomolgus, monkeys, single oral (gavage) dose of 15 mg/kg, individual animals, read-out: Cmax",191 ng/mL
same,concentration at 1 hr,"[2]; fasted male cynomolgus monkeys, single oral dose 100 mg encapsulated microparticulate capsule, 1 hr, individual animals, read-out: Plasma Concentrations",113 ng/mL
same,concentration at 3 hr,"[2]; fasted male cynomolgus monkeys, single oral dose 100 mg encapsulated microparticulate capsule, 3 hr, individual animals, read-out: Plasma Concentrations",174 ng/mL
same,concentration at 4 hr,"[2]; fasted male cynomolgus monkeys, single oral dose 100 mg encapsulated microparticulate capsule, 4 hr, individual animals, read-out: Plasma Concentrations",113 ng/mL
same,"AUC/Dose, Mean",[2]; male,174
same,"Cmax/Dose, Mean",[2]; male,14.0
same,AUC/Dose,"[2]; male, po, 16 mg/kg",174
same,Cmax/Dose,"[2]; male, po, 16 mg/kg",14.0
same,AUC,"[2]; male, po, 16 mg/kg, AUC0/t or 0-∞",2830 ng·h/mL
same,bioavailability,"[2]; male, po, 16 mg/kg, Bioavailability",4.8%
same,Cmax,"[2]; male, po, 16 mg/kg",225 ng/mL
same,bioavailability,"[2]; male, po, 16 mg/kg, absolute bioavailability of tigecycline in the blood",5%
same,half-life,"[2]; male, po, 16 mg/kg, t1/2",12.1 h
same,Tmax,"[2]; male, po, 16 mg/kg, tmax",2.25 h
same,Tmax,"[2]; male, po, 100 mg",3.0 h
same,AUC(0-inf),"[2]; male, po, 100 mg, AUC0-∞, Mean",2830 ng·h/mL
same,AUC,"[2]; male, po, 100 mg, AUC0/24, Mean",2130 ng·h/mL
same,Cmax,"[2]; male, po, 100 mg, Mean",225 ng/mL
same,half-life,"[2]; male, po, 100 mg, T1/2",9.48 h
same,half-life,"[2]; male, po, 100 mg, T1/2, Mean",12.1 h
same,Tmax,"[2]; male, po, 100 mg, Tmax",2 h
same,Tmax,"[2]; male, po, 100 mg, Tmax, Mean",2.25 h
same,solubility,[3],> 295 mg/mL
same,Papp at 1 mM,[4],0.04 ×10⁻⁶ cm/s
same,clearance,[5],~4.33 mL/min/kg
